Values joined by “and” are separate entries in the source; they are usually repeats but may differ in a detail not shown here. Equal entries are not always repeated. Bridges are numbered along the chain shown (N, C = ends). Roman numbers before positions name the chains, in order. The star is where a group is joined. Cam = NC(=O)C*

Series [1] concerns Sprague-Dawley rats. Kind of series: Bone mineral apposition rate after a single subcutaneous peptide injection, double tetracycline labelling, distal metaphysis of the right femur. Type of series: in vivo, rat. On the set-up: Bone mineral apposition rate, group mean (Table 2): unit not given here. To be noted: male rats; for Effect on bone mineral apposition rate versus control / Bone mineral apposition rate, individual rats (Table 2) / Bone mineral apposition rate, group mean (Table 2): Example 1; for Bone mineral apposition rate, individual rats (Table 2) / Bone mineral apposition rate, group mean (Table 2): 300 nmoles/kg s.c. single dose; for Bone mineral apposition rate, group mean (Table 2): N=4, control 1.48; for BONE MINERAL APPOSITION, individual rats (Table 6) / Effect on bone mineral apposition / BONE MINERAL APPOSITION, MEAN (Table 6): Example 3, 300 nmoles/kg S.C.; for BONE MINERAL APPOSITION, MEAN (Table 6): control 1.62. The protocol:
Test peptides were administered by subcutaneous injection to the right gluteal region of the rats after being dissolved in a carrier buffer comprising PBS containing 0.1% heat inactivated BSA at pH 7.4. The dose was 300 nmoles/kg bodyweight in an injection volume of 400 μl.
Male Sprague-Dawley rats from Charles River Laboratory were used. The weight of the animals was approximately 350 g. They were housed in pairs in standard shoebox cages. Purina rat chow and tap water were provided ad libitum. The light/dark cycle was 12 hours, the temperature 22° C. and the humidity 50%. The animals were acclimatized for one week before initiating dosing.
Bone mineral apposition rate as measured for the distal metaphysis of the right femur was the parameter for the assessment of activity. Two doses of tetracycline hydrochloride (Sigma), 24 mg/kg body weight were administered I.M. in an injection volume of 800 μl to the left gluteus maximus muscle. The first dose was given immediately following the administration of the peptide, and the second dose 48 hours later. 24 hours after the second dose of tetracycline, the animals were sacrificed by carbon dioxide narcosis. The right femur was dissected clear of muscles and a 0.5 cm cross section of the bone 1 mm below the upper epiphyseal cartilage was taken and processed undecalcified for histological preparation of […]. Bone mineral apposition rate was measured in 15 randomly selected bone formation sites with two tetracycline labels in the trabecular bone. The arithmetic mean of these 15 sites was taken as the mean bone mineral apposition for the respective animals.
The dose of peptide was dissolved in 400 μl of buffer comprising of PBS with 0.1% of heat inactivated BSA and the method for the determination of bone mineral apposition rate was as described before.
Experimental design: Animals were grouped in four. All groups received a single dose of SEQ ID NO:2 (300 nmoles/kg) subcutaneously injected to the right gluteal region at Day 0 at approximately the same time within 15 minutes. Two doses tetracycline labeling at intervals of 48 hours was used to measure bone mineral apposition rate. The control group received buffer injection only.

Series [2] has as its system Sprague-Dawley rats. The series is described as above. Type of series: in vivo, rat. Further details: unit not given here. To be noted: Example 2, 300 nmoles/kg s.c., N=3, control 1.18.
Series [3] is described as follows: Stability of peptides in solution, intact peptide remaining by HPLC peak height. Type of series: physicochemical. Particulars: pH 7.4. The protocol:
Solvents for test peptides: Milli-Q water filtered through […] filter; resistance—18.2 Mega Ohms
Phosphate buffered saline: pH […] from Gibco (Cat. #100113-023)
20. mM sodium acetate buffer: pH 4.5 prepared with Milli-Q water and filtered through […] filter.
Peptides: The test peptides included those of SEQ ID NOs: 2, 3, 4 & 7.
Peptide preparation: Test peptides were dissolved in either PBS or sodium acetate buffer at a concentration of 0.2 mg per ml. The purity of the test peptides was greater than 95%.
Method for testing stability: Stability of the peptides was examined at pH7.4 and at room temperature, 4° C. and 37° C. The amount of intact peptide remaining over time was compared with the initial intact amount. The quantification of the amount of peptide was based on peak height in an HPLC profile.

“SEQ ID NO: 7, dimer: dimerized form of the peptide having SEQ ID NO:7, disulfide bonding between the cysteine residues (chain 1 Ac-RTQEHTAECK-NH2; chain 2 Ac-RTQEHTAECK-NH2; disulfide I:9-II:9; also: disulfide-linked dimer)”: the “Effect on bone mineral apposition rate versus control” value in the series on Sprague-Dawley rats [1] (300 nmoles/kg s.c.) is reported as “inhibitory effect”. In the series with Sprague-Dawley rats [1], the Bone mineral apposition rate, individual rats (Table 2) was 1.28 µm/d and 1.41 µm/d and 1.5 µm/d and 1.38 µm/d; the “Bone mineral apposition rate, group mean (Table 2)” value stood at 1.39; the BONE MINERAL APPOSITION, individual rats (Table 6) is 1.29 µm/d and 1.51 µm/d (2×); the “Effect on bone mineral apposition” value is recorded as “significantly inhibit”. Also, the BONE MINERAL APPOSITION, MEAN (Table 6) with Sprague-Dawley rats [1] stood at 1.43 µm/d.

On to K-T-Q-E-F-T-A-E-M-K [SEQ ID NO: 1], for which the “Bone Mineral Apposition Rate, Mean rate (Table 4)” value with Sprague-Dawley rats [2] is 1.61.

For “SEQ ID NO: 5: peptide of SEQ ID NO:7 with a carboxyamidomethyl residue modifying cysteine at the 9-position of the decamer (Ac-RTQEHTAEC(Cam)K-NH2)”, in the series on Sprague-Dawley rats [1] (Example 4, 300 nmoles/kg s.c.), the “Bone mineral apposition rate compared with the prior art peptide of SEQ ID NO: 7 (FIG. 5)” value is “significantly greater”.

With “SEQ ID NO: 8, dimer: dimer form of the peptide with SEQ ID NO: 8 (chain 1 Ac-RTNEHTADCK-NH2; chain 2 Ac-RTNEHTADCK-NH2; not fully specified (bridges); cysteine pairing not given here; also: dimer, linkage not given here)”, in the series with Sprague-Dawley rats [1], the BONE MINERAL APPOSITION, individual rats (Table 6) is 1.39 µm/d and 1.43 µm/d and 1.42 µm/d and 1.36 µm/d; the “Effect on bone mineral apposition” value was “significantly inhibit”; the BONE MINERAL APPOSITION, MEAN (Table 6) turned out to be 1.4 µm/d.

Take “Ac-R T N E H T A D C K —NH2 (Ac-RTNEHTADCK-NH2) [SEQ ID NO: 8, monomer]”: in the series on Sprague-Dawley rats [1], the BONE MINERAL APPOSITION, individual rats (Table 6) is 2.27 µm/d and 1.78 µm/d and 2.15 µm/d and 2.01 µm/d; the “Effect on bone mineral apposition” value is on record as “significantly stimulated”; the BONE MINERAL APPOSITION, MEAN (Table 6) came out at 2.05 µm/d.

In the case of “Ac-R T Q E H T A E C K —NH2 (Ac-RTQEHTAECK-NH2) [SEQ ID NO: 7, monomer, prior art peptide]”, in the series on Sprague-Dawley rats [1] (300 nmoles/kg s.c.), the “Effect on bone mineral apposition rate versus control” value was “significantly higher than the control group”. For the same substance, in the series with Sprague-Dawley rats [1], the Bone mineral apposition rate, individual rats (Table 2) was 2.41 µm/d and 2.54 µm/d and 2.25 µm/d and 2.24 µm/d; the “Bone mineral apposition rate, group mean (Table 2)” value is 2.36; the BONE MINERAL APPOSITION, individual rats (Table 6) is 1.91 µm/d and 1.73 µm/d (2×) and 2.06 µm/d; the “Effect on bone mineral apposition” value is “significantly stimulated”. For the same substance, in the series on Sprague-Dawley rats [1], the BONE MINERAL APPOSITION, MEAN (Table 6) was found to be 1.86 µm/d. Moreover, the Degradation in solution entry in series [3] (4° C. and room temperature, 6 months) is “totally degraded”. Further, the Degradation in solution result in series [3] (4° C. and room temperature, over three months) is “substantial degradation”. The Degradation in solution entry in series [3] (37° C., over 3 weeks) is “substantial degradation”.

(Values after US20060052307A1, “Bone growth factor” (priority 2002, published 2006).)
